How the values were obtained:
AR-LBD (GST) = target: T1, AR-LBD (GST) (Rattus norvegicus, UniProt P15207); assay: PolarScreen Androgen Receptor (AR) Competitor Assay, binding experiment of the antagonist and AR; conditions: fluorescence polarization, incubated 6 hours, FIG. 1; read-out: IC50 of the drug and AR-LBD binding
T1 construct: purchased Life technologies company, USA
T1 sequence (P15207 651-882 limits assumed): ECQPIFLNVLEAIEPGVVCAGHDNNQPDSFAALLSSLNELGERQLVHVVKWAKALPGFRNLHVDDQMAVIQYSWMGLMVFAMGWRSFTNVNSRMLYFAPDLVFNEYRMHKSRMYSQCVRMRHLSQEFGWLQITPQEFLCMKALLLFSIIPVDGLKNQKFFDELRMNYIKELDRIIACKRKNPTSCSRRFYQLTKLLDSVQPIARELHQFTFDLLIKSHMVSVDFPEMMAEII
Source text: PolarScreen™ Androgen Receptor (AR) Competitor Assay, Green kit (Life technologies company, USA) is used to test the affinity of the antagonist to AR-LBD (GST). The mechanism of the experiment is that the AR-LBD is combined with a small molecule fluormone tracer (Fluormone Tracer), and an antagonist added can competitively bind with AR-LBD so as to replace the fluormone tracer, and the replaced fluormone tracer […], and the value of the fluorescence polarization is inversely proportional to the number of the replaced tracers.
A specific process is as follows: the drug is dissolved into 500 uM by using DMSO, and then diluted to 244 nM by double dilution concentration gradients in a 96-well plate. A 10 uL of a reaction system AR-LBD+Tracer is configured in a 384-well plate and 10 uL of the drug solution is added. The positive control is 10 uL of AR-LBD+Tracer with 10 uL of DHT added. The 384-well plate is wrapped by tin foil and incubated for 6 hours in the dark. The fluorescence polarization value is read on a multi-function microplate reader. Graphpad Prism software is used to draw a drug concentration as an abscissa, and the fluorescence polarization value is used as an ordinate for drawing a curve. […] Herein, the DHT, MDV3100, and ARN509 are positive controls.

[1] = system: Histone deacetylase (HDAC); assay: HDAC inhibitory activity: Kac-tubulin Western Blot in VCaP cells; format: cell-based; conditions: 10 uM drug, 24 h, FIG. 4
Description: (§1) The VCap cells are cultured in the 6-well plate. After treating the VCap cells with the drugs for 24 hours, acetylation levels of the tubulin in the cytoplasm and the H3 protein in the nucleus are examined by the western blot. An experiment process is as follows:
The VCaP cells are spread in the 6-well plate. 5×10^5 cells are inoculated per well, and incubated overnight to make the cells stick to a wall. On the second day, 10 uM of the drug is added per well. After being incubated for 24 h, the cells are collected, and lysed to extract the cell total protein. The Western Blot method is used to detect the expression levels of Kac-tubilin (localized cytoplasm) in the cells after treating with the different drugs.

[2] = system: Histone deacetylase (HDAC); assay: HDAC inhibitory activity: Kac-H3 Western Blot in VCaP cells; format: cell-based; conditions: 10 uM drug, 24 h, FIG. 5
Description: as §1
The VCaP cells are spread in the 6-well plate. 5×10^5 cells are inoculated per well, and incubated overnight to make the cells stick to a wall. Then 10 uM of the drug is added to each well. The cells are collected after being incubated for 24 h. The EpiQuik Total Histone Extraction kit (Epigentek, USA) is used to extract the histones, and the Western Blot method is used to detect expression levels of Kac-H3 (localized cell nucleus) in the cells after adding the different drugs.

VCaP cells = assay: Inhibiting effect on VCaP cell proliferation (MTS); format: cell-based; conditions: 4 days treatment, FIG. 6
Description: Androgen-sensitive prostate cancer cell (VCaP cells) are cultured in a 96-well plate. The VCaP cells are able to proliferate in a medium supplemented with 10 nM of the DHT. After treating the cells with the drugs for 4 days, we measure the effects of the drugs on the proliferation of the prostate cancer cells.
The VCaP cells are cultured by using 5% CSS and 1640 medium without phenol red, and inoculated in the 96-well plate. 1×10^4 cells are added to each well, and incubated overnight to make the cells stick to a wall. Different concentrations of the drugs are added on the second day. After treating the cells with the drugs for 4 days, cell viability is measured by the MTS kit (Promega, USA). To each well, 10% of an MTS reagent is added, and incubation continued for 2 hours. The absorbance value at […] is then measured by the multi-functional microplate reader. The Graphpad Prism software is used to draw a curve by using the drug concentration as an abscissa and using the absorbance value of the drug treatment/the absorbance value of the blank treatment cell as an ordinate.

MDA-MB-453 TNBC cells = assay: Cell proliferation of MDA-MB-453 (CCK8 cell viability); format: cell-based; conditions: 72 h
Description: 8000 MDA-MB-453 cells were plated in each well of a 96-well plate and incubated for 48 hours. Then cells were treated with increasing concentrations of Zeta55, MDV3100 or SAHA for 72 h, At last, cell viability was measured using a CCK8 Assay kit.

## N#Cc1ccc(N2C(=O)C3(CCC3)N(c3ccc(C(=O)NO)c(F)c3)C2=S)cc1C(F)(F)F [Zeta 55, 4-(7-(4-cyano-3-(trifluoromethyl)phenyl)-8-oxo-6-thio-5,7-diazaspiro[3.4]octane-5-yl)-2-fluoro-N-hydroxybenzamide]
AR-LBD (GST)
  IC50: 29.8 µM
[1]
  acetylation of the tubulin in the cytoplasm (HDAC inhibitory activity): superior
[2]
  H3 acetylation in the nucleus (HDAC inhibitory activity): superior
VCaP cells
  inhibitory effect on the VCap cell proliferation, from high to low: Zeta55>Zeta32>Zeta33>Zeta34>Zeta57
VCaP cells; VCaP cells
  cell proliferation inhibitory effect compared with positive control drug MDV3100: better than that of the positive control drug MDV3100
MDA-MB-453 TNBC cells; CCK8, FIG. 9
  potency relative to MDV3100: about 1.5 times
MDA-MB-453 TNBC cells; Homo sapiens, CCK8, FIG. 9, read-out: IC50 of dose-dependent killing of the cells
  IC50: 11.1 µM

Reference: patent US12122760B2, “Compound, composition, and use thereof in preparation of drug” (CHANGSHA ZEDA MEDICAL TECH. CO., LTD, priority 2019, dated 2024)
